Results on eight compounds are retold here after patent US12644143B2, “Method for the determination of antibiotic susceptibility through stimulated Raman metabolic imaging” (priority 2017, dated 2026).

Type in all cases: cell-based
One data set deals with E. coli. How it is done: (§1) The toxicity of D2O was first tested on bacteria by measuring the growth in a D2O containing medium. Three types of bacteria (E. coli, S. aureus, and P. aeruginosa) were cultured at different concentrated D2O containing LB medium, and their growth were monitored with optical density (OD) measurement at about 600 nm.
Data set [1] concerns P. aeruginosa. The protocol: as §1
Another data set relates to S. aureus. The protocol:
as §1

Data set [2] deals with P. aeruginosa. Description: conventional culture-based microdilution method. To be noted: 20 μg/ml. The protocol:
(§2) P. aeruginosa were cultivated in 70% D2O containing LB medium, with the addition of 20 μg/ml gentamicin or cefotaxime to determine the antibiotic effect on the metabolic activity of D2O in bacteria, and wherein it is suitable for use of rapid AST with SRS imaging. The susceptibility of P. aeruginosa were pre-determined to be susceptible to gentamicin and resistant to cefotaxime at this concentration using conventional culture-based microdilution method. […] This filamentary formation may also be observed when P. aeruginosa was treated with other β-lactam antibiotics 10.
(Dilution methods test growth across graded concentrations, often in twofold steps.)

Data set [3] has as its system P. aeruginosa. Briefly: SRS imaging of D2O metabolic activity (C-D signal at 2162 cm-1). As to conditions: for C-D signal / metabolic activity of D2O in SRS imaging: 10 minutes to 3 hours; for average C-D signal intensity relative to about 65% of control threshold: all time points about 10 minutes to about 3 hours. How it is done:
A 70% D2O containing LB medium was provided to cultivate bacteria, and used P. aeruginosa as a model to test whether the D2O metabolic activity in single bacterium can be monitored by SRS microscope. P. aeruginosa was separately cultivated in normal LB and 70% D2O containing LB medium for about 2 hours, and then centrifuged and washed in water to remove the culture medium. […] To image single bacterium, bacteria were further diluted and deposited on an agarose gel pad. […] The results were confirmed by SRS spectrum (FIG. 16C) obtained through temporal tuning of chirped pump and Stokes femtosecond pulses.
A time lapse of D2O metabolic activity can be carried out in single P. aeruginosa with femtosecond SRS imaging. P. aeruginosa was first cultivated in about 70% D2O containing LB medium for up to about 3 hours, at different time points, about 500 μl bacteria were centrifuged, washed and deposited on agarose gel pad for imaging. […] To view individual bacterium more clearly, the images in FIG. 18A were further zoomed in FIG. 18B.
as §2
The D2O metabolic activity of bacteria can be used to rapid differentiate the antibiotic susceptibility of bacteria and examined using the average C-D signal intensity of bacteria being compared between three groups shown in FIGS. 19C-H, the control without antibiotics treatment (FIG. 18A), treated with gentamicin (FIG. 19A), and treated with cefotaxime (FIG. 19B). […] Therefore, the susceptibility of P. aeruginosa to gentamicin and cefotaxime can be determined in as short as about 10 minutes.
The SRS metabolic imaging method can determine the minimal inhibitory concentration (MIC) of antibiotics to bacteria and was done by cultivating P. aeruginosa in about 70% D2O containing LB medium for about 1 hour with the addition of gentamicin with serial diluted concentration. […] With the 65% intensity threshold, the MIC was determined to be about 8 μg/ml with SRS-based D2O metabolic imaging method, which is consistent to the result determined by the conventional culture-based method.

The test system of data set [4] is E. faecalis 31970 (vancomycin susceptible enterococci, VSE). Description: MIC by conventional culture based method.
The test system is the same in data set [5]. Briefly: SRS metabolic imaging of glucose-d7 uptake (C-D signal) for AST. As to conditions: for susceptibility of E. faecalis 31970 based on metabolic imaging method: 20 μg/mL antibiotic; for C-D signal in SRS imaging versus control: E. faecalis 31970, 20 μg/mL antibiotic; for intensity of C-D component versus control: 1 hour. The protocol: (§3) The SRS imaging based method of the present disclosure can determine the susceptibility of bacteria to antibiotics within about […]. A bacteria solution for testing through SRS imaging and placement on the agarose gel pad can be prepared by cultivating bacteria in a broth, such as a Lysogeny broth (LB) (LB Broth, Sigma Aldrich) for about two hours to reach to log phase. The bacteria can then added in a ratio between about 0.1:100 to about a 10:100 ratio to 2 mL of various types of medium. In one exemplary embodiment, the ration can be about 1:100 to 2 ML of medium, such as a specialized medium. Some exemplary embodiments can use D2O medium or other specialized medium herein referred to as M9 medium wherein about a 2% glucose-d7 can be only carbon source. The M9 medium is developed and selected to maximize the signal within the C-D vibrational region. To measure the resistance of a given bacteria to an antibiotic, the antibiotic is added to the specialized medium to a concentration of about 20 μg/mL. After at least about 30 minutes of incubation about 500 μl of the sample is centrifuged, washed twice with purified water, and deposited to an agarose gel pad for imaging. An imaging setup of illustrated in FIG. 1A can be utilized to process the sample.
Referring now to FIG. 2A-D the method of the present disclosure can generally be performed in an exemplary method to determine effectiveness utilizing an antibiotic, such as vancomycin. Accordingly, the method can be utilized to examine the influence of antibiotics to the metabolic uptake of glucose-d7 by bacteria. Vancomycin susceptible (VSE) and Vancomycin resistant (VRE) enterococci E. faecalis can first be grown to a log phase by cultivating in LB medium for about 2 hours, then VSE and VRE can further be cultivated in M9 medium with about 2% glucose-d7 as the sole carbon source, respectively, with the addition of vancomycin to a final concentration of about 20 μg/mL (FIG. 2A). Other embodiments can include various types of carbon source as a sole carbon source or in combination with other carbon or nutrient sources. One exemplary embodiment can use a nutrient source of about 0-100% deuterium dioxide. Similarly, the carbon source can include a combination of deuterium dioxide and glucose-d7. This concentration was chosen because it is between the minimum inhibitory concentrations (MICS) of vancomycin to VSE (MIC is 1 μg/mL) and to VRE (MIC is >100 μg/mL). For control, VSE and VRE were cultivated in glucose-d7 containing medium without the addition of vancomycin (FIG. 2a). After 30 minutes (0.5 hours) to 3 hours incubation, each sample was centrifuged and washed twice in water, and then deposited on an agarose gel pad for SRS imaging.
(§4) To quantify the C-D content of the E. faecalis cells and the response of bacteria to the treatment of antibiotics, multivariate curve resolution (MCR) analysis is applied to retrieve the C-D component from hyperspectral SRS imaging data shown in FIGS. 3A-D. MCR is a bilinear model which decomposes the experimental data matrix that contains spectrum at each pixel into concentration maps and spectra of principle components. With an initial estimated spectrum of each component as the input, MCR is calculated and optimized iteratively using alternating least squares algorithm until convergence is reached. The output of MCR contains the concentration map and spectrum of each component. Referring now to FIG. 3A-D the spectra of glucose-d7, which represented the C-D component, and gel, which represented the background, were used as the input components. After MCR analysis, C-D component can be clearly separated from the background and utilized to quantify the contents of the collected SRS imaging data.
The MIC, defined as the lowest concentration of antibiotic that is able to inhibit the visible growth of bacteria in vitro, can be determined by our metabolic imaging method. […]

Data set [6] has as its system S. aureus strain susceptible to oxacillin. Briefly: MIC of oxacillin. As to conditions: Staphylococcus aureus.
Data set [7] has as its system S. aureus strain resistant to oxacillin. Briefly: SRS metabolic imaging of deuterated glucose (C-D peak). To be noted: 1.3 μg/ml oxacillin, 0.5 h, glucose-d2 containing medium. How it is done:
(§5) The metabolic activity of glucose-d2 can be observed in single bacterium cultivated in glucose-d2 containing medium for 0.5 h by SRS imaging (FIG. 11B). […] Therefore, susceptible and resistant S. aureus can be determined in about 0.5 h.

Data set [8] has as its system S. aureus strain susceptible to oxacillin. Described as above. To be noted: 1.3 μg/ml oxacillin, 0.5 h, glucose-d2 containing medium. The protocol: as §5
The test system of data set [9] is vancomycin resistant (VRE) enterococci E. faecalis. Briefly: MIC by conventional culture based method. To be noted: Enterococcus.
Data set [10] shares this test system. Description: SRS metabolic imaging of glucose-d7 uptake (C-D signal) for AST. As to conditions: for intensity of C-D component after MCR versus control: 20 μg/ml. How it is done:
as §3, with “sample. […]” for “sample.”
as §4, with “The output of MCR contains the concentration map and spectrum of each component. Referring now to FIG. 3A-D the spectra of glucose-d7, which represented the C-D component, and gel, which represented the background, were used as the input components.” left out, “data. […]” for “data.”

The mark [11] stands for this setting: Enterococcus faecalis, conventional culture based method, E. faecalis 31970 (VSE), read-out: MIC.

Converted amounts (≈) assume the structure as drawn.

As for `[2H]O[2H]` [D2O], the toxicity to growth entry in the data set with E. coli and in the data set with S. aureus was “did not show significant toxicity” each time. Besides, the “growth of P. aeruginosa” value in the data set with P. aeruginosa [1] was “initially slowed down”.
Turning to `CO/N=C(\C(=O)N[C@@H]1C(=O)N2C(C(=O)O)=C(COC(C)=O)CS[C@H]12)c1csc(N)n1` [cefotaxime], the “susceptibility of P. aeruginosa pre-determined by microdilution” value with P. aeruginosa [2] is “resistant”. Also, in the data set on P. aeruginosa [3] (20 μg/ml, 70% D2O LB medium), the “bacterial morphology on cultivation with antibiotic” value is on record as “tends to form long rods” and the “C-D signal / metabolic activity of D2O in SRS imaging” value is “active metabolic activity of D2O”. For the same compound, the “average C-D signal intensity relative to about 65% of control threshold” value with P. aeruginosa [3] (20 μg/ml) is “always above the threshold”.
`CCCCCCCCCC(=O)N[C@@H](Cc1c[nH]c2ccccc12)C(=O)N[C@H](CC(N)=O)C(=O)N[C@@H](CC(=O)O)C(=O)N[C@@H]1C(=O)NCC(=O)N[C@@H](CCCN)C(=O)N[C@@H](CC(=O)O)C(=O)N[C@H](C)C(=O)N[C@@H](CC(=O)O)C(=O)NCC(=O)N[C@H](CO)C(=O)N[C@@H]([C@H](C)CC(=O)O)C(=O)N[C@@H](CC(=O)c2ccccc2N)C(=O)O[C@@H]1C` [daptomycin]: the MIC (commonly the smallest concentration in the dilution series that meets the test's criterion for growth inhibition) in data set [4] (setting [11]) came out at 32 µg/mL (≈ 19.7 µM). Also, in data set [5] (1 h), the “susceptibility of E. faecalis 31970 based on metabolic imaging method” value (“susceptibility … on metabolic imaging method” for short) is given as “resistant”.
The matching figures for `CC[C@H]1OC(=O)[C@H](C)[C@@H](O[C@H]2C[C@@](C)(OC)[C@@H](O)[C@H](C)O2)[C@H](C)[C@@H](O[C@@H]2O[C@H](C)C[C@H](N(C)C)[C@H]2O)[C@](C)(O)C[C@@H](C)C(=O)[C@H](C)[C@@H](O)[C@]1(C)O` [erythromycin]: more than 256 µg/mL and “resistant”.
Take `CC(=O)NC[C@H]1CN(c2ccc(N3CCOCC3)c(F)c2)C(=O)O1` [linezolid]: in data set [4] (setting [11]), the MIC is 2 µg/mL (≈ 5.93 µM). Further, in data set [5] (1 h), the “susceptibility … on metabolic imaging method” value is on record as “susceptible” and the “C-D signal in SRS imaging versus control” value is “significant reduction”.
For `Cc1onc(-c2ccccc2)c1C(=O)N[C@@H]1C(=O)N2[C@@H]1SC(C)(C)[C@@H]2C(=O)O` [oxacillin], in data set [6], the MIC was 0.0625 µg/mL. The “C-D peak versus untreated control” value in [7] is “no significant change”; in data set [8] it was “reduction in C-D peak”.
Regarding `CN[C@H](CC(C)C)C(=O)N[C@H]1C(=O)N[C@@H](CC(N)=O)C(=O)N[C@H]2C(=O)N[C@H]3C(=O)N[C@H](C(=O)N[C@H](C(=O)O)c4cc(O)cc(O)c4-c4cc3ccc4O)[C@H](O)c3ccc(c(Cl)c3)Oc3cc2cc(c3O[C@@H]2O[C@H](CO)[C@@H](O)[C@H](O)[C@H]2O[C@H]2C[C@](C)(N)[C@H](O)[C@H](C)O2)Oc2ccc(cc2Cl)[C@H]1O` [vancomycin], the MIC is 1 µg/mL (≈ 0.69 µM) in [4] (Enterococcus faecalis); more than 100 µg/mL in [9]; 2 µg/mL in data set [5] (Enterococcus faecalis, 1 h, read-out: MIC determined by metabolic imaging method). In data set [5] (1 h), the “susceptibility … on metabolic imaging method” value is on record as “susceptible”. Further, in [5] (20 μg/mL vancomycin, 30 minutes in glucose-d7 medium, fraction of control), the “intensity of C-D signal for individual VSE relative to control group” value is reported as “about ⅓”. In addition, the “C-D signal in SRS imaging versus control” value in data set [5] (1 h) was “significant reduction”. In addition, the “intensity of C-D component versus control” value in data set [5] (VSE, 1 μg/mL vancomycin) was “did not reduce”; in data set [5] (VSE, 2 μg/mL or higher vancomycin) it was “significantly reduced”. Further, the “normalized SRS spectra, signal intensity in C-D region versus control” value in data set [5] (VSE, 20 μg/mL vancomycin, 30 minutes) is given as “reduced the signal intensity”. Further, the “intensity of C-D component after MCR versus control” value in data set [5] (VSE, 20 μg/ml, 0.5, 1 and 3 h (p 2.2×10^−13, 2.0×10^−11, 3.9×10^−15)) is on record as “significantly reduced”; in data set [10] (0.5 to 3 h), “did not significantly reduce”; in [10] (3 h (p-value 5×10^−4)), “higher intensity of C-D component than the control group”. For the same compound, in data set [10] (20 μg/mL vancomycin, 30 minutes), the “normalized SRS spectra, signal intensity in C-D region with and without treatment” value is reported as “remain the same”.
On to gentamycin, for which the MIC in [4] (conventional culture based method, E. faecalis 31970 (VSE)) was more than 256 µg/mL. The “susceptibility … on metabolic imaging method” value in [5] (1 h) is given as “resistant”. Moreover, in the data set on P. aeruginosa [2], the “susceptibility of P. aeruginosa pre-determined by microdilution” value is given as “susceptible”. For the same compound, the “C-D signal / metabolic activity of D2O in SRS imaging” value in the data set on P. aeruginosa [3] (20 μg/ml, 70% D2O LB medium) is recorded as “significantly reduced”. Also, the “average C-D signal intensity relative to about 65% of control threshold” value in the data set on P. aeruginosa [3] (20 μg/ml) was “always below the threshold”. For the same compound, the “gentamicin concentration at which D2O metabolic activity was inhibited” value in the data set on P. aeruginosa [3] (about 1 hour, 70% D2O LB medium) was not below 8 µg/mL. Moreover, in the data set on P. aeruginosa [3] (about 1 hour, 70% D2O LB medium, 65% intensity threshold), the “MIC with SRS-based D2O metabolic imaging method” value is on record as “about 8 μg/ml”.
